# From US20160361302A1, “SNS-595 AND METHODS OF USING THE SAME” (Sunesis Pharmaceuticals, Inc., priority 2004, published 2016)
# Read-outs that look alike come from different tables or passages of the source.
# Experiment: Pharmacokinetics of SNS-595 in cancer patients
# Type: in vivo, human
# Settings: for AUC(0-inf): read-out: AUCINF_obs
# Description: SNS-595 was administered to enrolled patients for up to six cycles. A cycle is defined as a three-week period, with SNS-595 administered on the first day of each cycle (day 0), followed by at least 21 days of observation. SNS-595 was administered to cohorts of at least 3 patients and dose escalation occurred by sequential cohort.
# [1] = dose 6 mg/m2, cancer patients, plasma
# [2] = dose 12 mg/m2, cancer patients, plasma
# [3] = dose 24 mg/m2, cancer patients, plasma
# [4] = dose 48 mg/m2, cancer patients, plasma
# [5] = human, dose 12 mg/m2, cancer patients, plasma
smiles,measurement,setting,value
"CN[C@H]1CN(c2ccc3c(=O)c(C(=O)O)cn(-c4nccs4)c3n2)C[C@@H]1OC [SNS-595, (+)-1,4-dihydro-7-[(3S,4S)-3-methoxy-4-(methylamino)-1-pyrrolidinyl]-4-oxo-1-(2-thiazoyl)-1,8-naphthyridine-3-carboxylic acid]",Vs_obs,"dose 2 mg/m2, cancer patients, plasma",1.38 L/kg
same,AUClast,[1],2408.08 ng·h/mL
same,CI_obs,[1],0.71 mL/min/kg
same,Cmax,[1],347.06 ng/mL
same,Vs_obs,[1],1.28 L/kg
same,CI_obs,[2],0.78 mL/min/kg
same,Vs_obs,[2],1.17 L/kg
same,AUClast,[3],11132.02 ng·h/mL
same,CI_obs,[3],0.83 mL/min/kg
same,Cmax,[3],2702.33 ng/mL
same,Vs_obs,[3],1.18 L/kg
same,Cmax,[4],2342.00 ng/mL
same,Vs_obs,[4],1.37 L/kg
same,AUC(0-inf),"human, dose 6 mg/m2, cancer patients, plasma",2800 ng·h/mL
same,AUC(0-t),[5],~6280 ng·h/mL
same,AUC(0-inf),[5],5230 ng·h/mL
same,Consistency of pharmacokinetic properties among patients,patients in the same cohort,remarkably consistent among patients in the same cohort
